In patent publication US11981658B2, “Substituted aminopyridine compounds as EGFR inhibitors” (YUHAN CORPORATION, priority 2021, dated 2024):
Where two headings read alike, the source gives them in different places.

Tests used:
EGFR Del19/C797S = EGFR Del19/C797S (Homo sapiens, UniProt P00533, C797S/DEL746-750); experiment: Biochemical EGFR kinase inhibition assay (Lance Ultra TR-FRET), double mutant del19/C797S
Procedure, shortened: (§1)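 Kinase activity is measured by TR-FRET phosphopeptide detection. Compounds span 0.003 μM to 10 μM; the 1 h reaction at room temperature is quenched with EDTA, then labelled antibody (2 nM) is incubated 60 min before reading.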

EGFR Del19/T790M/C797S = EGFR Del19/T790M/C797S (Homo sapiens, UniProt P00533, C797S/DEL746-750/T790M); experiment: Biochemical EGFR kinase inhibition assay (Lance Ultra TR-FRET), triple mutant del19/T790M/C797S
Chain of EGFR Del19/T790M/C797S (P00533 with tags, fused parts or gaps DEL746-750/T790M/C797S): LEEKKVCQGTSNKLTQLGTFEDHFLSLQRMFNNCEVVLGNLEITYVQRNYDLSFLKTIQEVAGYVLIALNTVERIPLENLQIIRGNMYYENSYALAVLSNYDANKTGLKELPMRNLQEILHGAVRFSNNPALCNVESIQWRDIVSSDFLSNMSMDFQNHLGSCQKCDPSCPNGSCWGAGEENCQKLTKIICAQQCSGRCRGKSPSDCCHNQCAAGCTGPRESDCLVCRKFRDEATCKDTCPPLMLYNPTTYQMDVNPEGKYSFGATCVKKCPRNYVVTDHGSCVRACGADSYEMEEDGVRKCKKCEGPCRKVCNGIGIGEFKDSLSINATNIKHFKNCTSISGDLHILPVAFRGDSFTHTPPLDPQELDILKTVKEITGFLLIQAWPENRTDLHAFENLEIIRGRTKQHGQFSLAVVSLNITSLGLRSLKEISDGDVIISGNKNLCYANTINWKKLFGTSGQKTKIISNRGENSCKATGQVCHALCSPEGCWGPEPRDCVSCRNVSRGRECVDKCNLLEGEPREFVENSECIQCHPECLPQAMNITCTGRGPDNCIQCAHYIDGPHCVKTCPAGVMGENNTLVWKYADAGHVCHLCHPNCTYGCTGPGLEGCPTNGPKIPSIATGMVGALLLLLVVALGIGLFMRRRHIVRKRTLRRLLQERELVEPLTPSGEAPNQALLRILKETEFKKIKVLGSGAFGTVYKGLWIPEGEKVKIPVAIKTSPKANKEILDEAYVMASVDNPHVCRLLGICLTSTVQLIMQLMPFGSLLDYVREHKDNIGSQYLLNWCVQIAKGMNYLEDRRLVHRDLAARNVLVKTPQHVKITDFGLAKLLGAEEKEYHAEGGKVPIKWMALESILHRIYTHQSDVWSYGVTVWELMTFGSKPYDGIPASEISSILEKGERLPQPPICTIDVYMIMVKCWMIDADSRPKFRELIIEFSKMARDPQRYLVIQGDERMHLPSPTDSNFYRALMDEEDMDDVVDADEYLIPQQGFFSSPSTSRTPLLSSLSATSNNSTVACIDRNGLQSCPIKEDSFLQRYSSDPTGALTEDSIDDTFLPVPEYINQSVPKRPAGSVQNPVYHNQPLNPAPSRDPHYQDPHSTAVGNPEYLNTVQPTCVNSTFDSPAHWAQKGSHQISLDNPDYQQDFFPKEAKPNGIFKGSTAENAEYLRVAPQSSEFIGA
Procedure, shortened: as §1

EGFR L858R/T790M/C797S = EGFR L858R/T790M/C797S (Homo sapiens, UniProt P00533, C797S/L858R/T790M); experiment: Biochemical EGFR kinase inhibition assay (Lance Ultra TR-FRET), triple mutant L858R/T790M/C797S
Procedure, shortened: as §1

EGFR wildtype (WT) = EGFR wildtype (WT) (Homo sapiens, UniProt P00533); experiment: Biochemical EGFR kinase inhibition assay (Lance Ultra TR-FRET), wildtype
Chain of EGFR wildtype (WT) (P00533 25-1210): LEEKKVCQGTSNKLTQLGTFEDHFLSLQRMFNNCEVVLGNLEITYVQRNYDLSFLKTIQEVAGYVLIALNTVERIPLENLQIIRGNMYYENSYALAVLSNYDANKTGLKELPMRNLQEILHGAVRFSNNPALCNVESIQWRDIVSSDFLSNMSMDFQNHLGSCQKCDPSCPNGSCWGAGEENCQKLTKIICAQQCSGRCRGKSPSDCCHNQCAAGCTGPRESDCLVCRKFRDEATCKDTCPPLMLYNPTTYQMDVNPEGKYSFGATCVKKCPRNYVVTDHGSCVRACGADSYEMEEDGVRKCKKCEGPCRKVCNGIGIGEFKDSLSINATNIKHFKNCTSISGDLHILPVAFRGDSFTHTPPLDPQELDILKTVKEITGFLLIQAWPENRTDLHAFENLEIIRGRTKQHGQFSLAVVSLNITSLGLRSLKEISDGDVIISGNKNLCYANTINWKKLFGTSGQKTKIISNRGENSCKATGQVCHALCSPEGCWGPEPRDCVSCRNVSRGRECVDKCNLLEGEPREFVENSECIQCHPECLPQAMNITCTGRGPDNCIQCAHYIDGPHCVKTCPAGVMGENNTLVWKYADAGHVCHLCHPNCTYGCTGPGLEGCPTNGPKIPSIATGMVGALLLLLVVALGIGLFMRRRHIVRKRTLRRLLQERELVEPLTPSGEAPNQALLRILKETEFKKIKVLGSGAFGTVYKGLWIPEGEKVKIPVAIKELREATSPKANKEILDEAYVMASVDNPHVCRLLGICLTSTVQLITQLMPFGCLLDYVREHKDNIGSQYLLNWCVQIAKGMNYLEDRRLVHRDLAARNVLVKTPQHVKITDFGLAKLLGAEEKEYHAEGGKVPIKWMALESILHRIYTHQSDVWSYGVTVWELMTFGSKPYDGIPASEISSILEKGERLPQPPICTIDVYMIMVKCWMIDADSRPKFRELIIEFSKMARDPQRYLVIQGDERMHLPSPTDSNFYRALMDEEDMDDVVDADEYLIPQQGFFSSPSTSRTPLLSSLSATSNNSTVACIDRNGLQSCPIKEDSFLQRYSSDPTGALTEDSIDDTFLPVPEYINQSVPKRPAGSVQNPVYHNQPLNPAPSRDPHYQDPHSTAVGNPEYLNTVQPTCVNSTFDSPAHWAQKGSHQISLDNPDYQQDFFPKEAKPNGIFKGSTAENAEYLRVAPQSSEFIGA
Procedure, shortened: as §1

EGFR L858R/C797S = EGFR L858R/C797S (Homo sapiens, UniProt P00533, C797S/L858R); experiment: Biochemical EGFR kinase inhibition assay (Lance Ultra TR-FRET), double mutant L858R/C797S
Chain of EGFR L858R/C797S (P00533 25-1210 C797S/L858R): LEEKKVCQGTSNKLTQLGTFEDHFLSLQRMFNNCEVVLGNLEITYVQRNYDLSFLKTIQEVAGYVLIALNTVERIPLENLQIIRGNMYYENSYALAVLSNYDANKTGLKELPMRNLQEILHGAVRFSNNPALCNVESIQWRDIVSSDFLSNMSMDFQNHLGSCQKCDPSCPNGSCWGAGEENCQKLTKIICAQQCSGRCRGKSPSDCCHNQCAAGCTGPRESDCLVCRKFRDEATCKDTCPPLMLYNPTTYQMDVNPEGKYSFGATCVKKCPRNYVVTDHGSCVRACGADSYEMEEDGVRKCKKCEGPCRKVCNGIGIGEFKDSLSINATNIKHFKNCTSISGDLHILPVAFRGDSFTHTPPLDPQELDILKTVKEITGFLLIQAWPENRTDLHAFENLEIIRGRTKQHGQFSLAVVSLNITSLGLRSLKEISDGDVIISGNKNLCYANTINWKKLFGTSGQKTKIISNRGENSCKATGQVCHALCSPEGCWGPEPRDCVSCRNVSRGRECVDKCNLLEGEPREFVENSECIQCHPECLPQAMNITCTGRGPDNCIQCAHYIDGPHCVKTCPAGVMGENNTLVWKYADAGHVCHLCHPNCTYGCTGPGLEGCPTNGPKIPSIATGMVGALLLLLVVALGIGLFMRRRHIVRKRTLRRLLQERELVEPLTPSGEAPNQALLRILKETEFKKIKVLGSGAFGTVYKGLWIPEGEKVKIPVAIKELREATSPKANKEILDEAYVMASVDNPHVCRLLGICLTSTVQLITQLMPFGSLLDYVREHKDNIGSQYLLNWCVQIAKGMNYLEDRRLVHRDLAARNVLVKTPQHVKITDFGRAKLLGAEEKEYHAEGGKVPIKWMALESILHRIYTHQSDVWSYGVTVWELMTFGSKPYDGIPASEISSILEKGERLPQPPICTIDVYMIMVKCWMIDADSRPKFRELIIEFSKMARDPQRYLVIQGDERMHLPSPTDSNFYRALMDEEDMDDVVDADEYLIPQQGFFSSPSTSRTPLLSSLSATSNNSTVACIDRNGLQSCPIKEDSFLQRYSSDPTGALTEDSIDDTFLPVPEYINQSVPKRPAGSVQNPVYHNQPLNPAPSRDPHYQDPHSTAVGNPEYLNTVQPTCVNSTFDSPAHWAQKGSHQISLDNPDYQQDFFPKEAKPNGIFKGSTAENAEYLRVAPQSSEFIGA
Procedure, shortened: as §1

[1] = IC50 Del19/C797S (nM), 100 μM ATP
[2] = Km ATP, read-out: IC50 Del19/C797S (nM) Km ATP
[3] = IC50 Del19/T790M/C797S (nM), 100 μM ATP
[4] = Km ATP, read-out: IC50 Del19/T790M/C797S (nM) Km ATP
[5] = IC50 L858R/T790M/C797S (nM), 100 μM ATP
[6] = Km ATP, read-out: IC50 L858R/T790M/C797S (nM) Km ATP
[7] = Km ATP, read-out: IC50 WT (nM) Km ATP
[8] = IC50 L858R/C797S (nM), 100 μM ATP
[9] = Km ATP, read-out: IC50 L858R/C797S (nM) Km ATP
[10] = ATP at Km, read-out: IC50 Del19/C797S (nM), Km ATP
[11] = ATP at Km, read-out: IC50 Del19/T790M/C797S (nM), Km ATP
[12] = ATP at Km, read-out: IC50 L858R/T790M/C797S (nM), Km ATP
[13] = ATP at Km, read-out: IC50 WT (nM), Km ATP
[14] = ATP at Km, read-out: IC50 L858R/C797S (nM), Km ATP

Chain of EGFR Del19/C797S (P00533 with tags, fused parts or gaps DEL746-750/C797S): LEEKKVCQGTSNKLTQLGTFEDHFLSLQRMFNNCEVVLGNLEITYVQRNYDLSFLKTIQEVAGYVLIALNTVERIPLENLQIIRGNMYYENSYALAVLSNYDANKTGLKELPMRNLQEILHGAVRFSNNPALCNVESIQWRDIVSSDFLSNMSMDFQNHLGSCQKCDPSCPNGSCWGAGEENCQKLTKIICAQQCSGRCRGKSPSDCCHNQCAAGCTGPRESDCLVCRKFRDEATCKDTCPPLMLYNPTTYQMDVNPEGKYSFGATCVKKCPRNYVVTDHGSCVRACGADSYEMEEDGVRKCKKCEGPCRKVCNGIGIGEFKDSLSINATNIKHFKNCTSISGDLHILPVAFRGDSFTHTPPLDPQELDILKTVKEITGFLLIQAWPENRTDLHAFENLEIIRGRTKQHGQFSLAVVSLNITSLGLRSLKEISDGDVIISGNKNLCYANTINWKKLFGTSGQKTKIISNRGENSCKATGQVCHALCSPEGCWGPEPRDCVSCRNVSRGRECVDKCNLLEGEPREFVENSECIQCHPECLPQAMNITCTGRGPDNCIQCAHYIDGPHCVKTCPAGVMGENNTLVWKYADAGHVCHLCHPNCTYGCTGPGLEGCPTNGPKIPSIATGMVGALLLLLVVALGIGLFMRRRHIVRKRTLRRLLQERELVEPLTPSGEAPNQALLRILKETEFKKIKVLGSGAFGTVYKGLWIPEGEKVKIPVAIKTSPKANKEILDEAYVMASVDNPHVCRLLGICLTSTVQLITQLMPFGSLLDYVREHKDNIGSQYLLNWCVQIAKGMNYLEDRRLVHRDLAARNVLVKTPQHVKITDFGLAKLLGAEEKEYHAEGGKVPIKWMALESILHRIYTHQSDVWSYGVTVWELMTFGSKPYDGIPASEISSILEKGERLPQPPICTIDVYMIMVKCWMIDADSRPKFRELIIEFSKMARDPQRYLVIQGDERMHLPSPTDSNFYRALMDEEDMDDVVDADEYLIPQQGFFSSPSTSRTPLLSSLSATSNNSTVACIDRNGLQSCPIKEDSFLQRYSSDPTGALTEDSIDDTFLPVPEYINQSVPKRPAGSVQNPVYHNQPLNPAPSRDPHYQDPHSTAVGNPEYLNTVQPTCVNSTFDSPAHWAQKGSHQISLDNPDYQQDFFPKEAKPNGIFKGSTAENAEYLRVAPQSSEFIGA

SMILES	IC50 (EGFR Del19/C797S; [1])	IC50 (EGFR Del19/C797S; [2])	IC50 (EGFR Del19/T790M/C797S; [3])	IC50 (EGFR Del19/T790M/C797S; [4])	IC50 (EGFR L858R/T790M/C797S; [5])	IC50 (EGFR L858R/T790M/C797S; [6])	IC50 (EGFR wildtype (WT); IC50 WT (nM), 100 μM ATP)	IC50 (EGFR wildtype (WT); [7])	IC50 (EGFR L858R/C797S; [8])	IC50 (EGFR L858R/C797S; [9])	IC50 (EGFR Del19/C797S; [10])	IC50 (EGFR Del19/T790M/C797S; [11])	IC50 (EGFR L858R/T790M/C797S; [12])	IC50 (EGFR wildtype (WT); [13])	IC50 (EGFR L858R/C797S; [14])
CC1(CO)CCN(c2cc(Nc3ccnc(-c4cnn(S(=O)(=O)C5CC5)c4)n3)ncc2C#Cc2cnn(CC3CCOCC3)c2)CC1 [Example 231, (1-(2-((2-(1-(Cyclopropylsulfonyl)-1H-pyrazol-4-yl)pyrimidin-4-yl)amino)-5-((1-((tetrahydro-2H-pyran-4-yl)methyl)-1H-pyrazol-4-yl)ethynyl)pyridin-4-yl)-4-methylpiperidin-4-yl)methanol]	3 nM	1.3 nM	1.6 nM	1.7 nM	1.5 nM	0.9 nM	968 nM	6.1 nM	4.6 nM	1.1 nM	–	–	–	–	–
CC1(CO)CCN(c2cc(Nc3ccnc(-c4cnn(S(=O)(=O)C5CC5)c4)n3)ncc2C#Cc2cnn(CCN3CCOCC3)c2)CC1 [Example 232, (1-(2-((2-(1-(Cyclopropylsulfonyl)-1H-pyrazol-4-yl)pyrimidin-4-yl)amino)-5-((1-(2-morpholinoethyl)-1H-pyrazol-4-yl)ethynyl)pyridin-4-yl)-4-methylpiperidin-4-yl)methanol]	1.1 nM	0.4 nM	1.3 nM	0.8 nM	1.3 nM	0.5 nM	719 nM	0.9 nM	5.9 nM	0.2 nM	–	–	–	–	–
CC1(CO)CCN(c2cc(Nc3ccnc(-c4cnn(S(=O)(=O)C5CC5)c4)n3)ncc2C#Cc2cnn(CC3CCCOC3)c2)CC1 (centres unmarked) [Example 241, (1-(2-((2-(1-(Cyclopropylsulfonyl)-1H-pyrazol-4-yl)pyrimidin-4-yl)amino)-5-((1-((tetrahydro-2H-pyran-3-yl)methyl)-1H-pyrazol-4-yl)ethynyl)pyridin-4-yl)-4-methylpiperidin-4-yl)methanol]	1.7 nM	–	2.5 nM	–	3.9 nM	–	4180 nM	–	17.5 nM	–	1.2 nM	2.1 nM	0.8 nM	9.1 nM	2.3 nM
CC1(CO)CCN(c2cc(Nc3ccnc(-c4cnn(S(=O)(=O)C5CC5)c4)n3)ncc2C#Cc2cnn(CC3COCCO3)c2)CC1 (centres unmarked) [Example 242, (1-(5-((1-((1,4-Dioxan-2-yl)methyl)-1H-pyrazol-4-yl)ethynyl)-2-((2-(1-(cyclopropylsulfonyl)-1H-pyrazol-4-yl)pyrimidin-4-yl)amino)pyridin-4-yl)-4-methylpiperidin-4-yl)methanol]	0.6 nM	–	1 nM	–	1.6 nM	–	2610 nM	–	13.8 nM	–	0.7 nM	0.8 nM	0.4 nM	4.6 nM	1 nM
CC1(CO)CCN(c2cc(Nc3ccnc(-c4cnn(S(=O)(=O)C5CC5)c4)n3)ncc2C#Cc2cnn(CC3CCOC3)c2)CC1 (centres unmarked) [Example 243, (1-(2-((2-(1-(Cyclopropylsulfonyl)-1H-pyrazol-4-yl)pyrimidin-4-yl)amino)-5-((1-((tetrahydrofuran-3-yl)methyl)-1H-pyrazol-4-yl)ethynyl)pyridin-4-yl)-4-methylpiperidin-4-yl)methanol]	0.7 nM	–	1.4 nM	–	1.8 nM	–	2170 nM	–	14.7 nM	–	0.8 nM	0.9 nM	0.4 nM	4.7 nM	0.9 nM
CC1(CO)CCN(c2cc(Nc3ccnc(-c4cnn(S(=O)(=O)C5CC5)c4)n3)ncc2C#Cc2cnn(C3CCOC3)c2)CC1 (centres unmarked) [Example 244, (1-(2-((2-(1-(Cyclopropylsulfonyl)-1H-pyrazol-4-yl)pyrimidin-4-yl)amino)-5-((1-(tetrahydrofuran-3-yl)-1H-pyrazol-4-yl)ethynyl)pyridin-4-yl)-4-methylpiperidin-4-yl)methanol]	0.5 nM	–	1.3 nM	–	1.5 nM	–	418 nM	–	3.1 nM	–	0.6 nM	0.8 nM	0.5 nM	6 nM	1 nM
CC1(CO)CCN(c2cc(Nc3ccnc(-c4cnn(S(=O)(=O)C5CC5)c4)n3)ncc2C#Cc2cnn(C3COC3)c2)CC1 [Example 245, (1-(2-((2-(1-(Cyclopropylsulfonyl)-1H-pyrazol-4-yl)pyrimidin-4-yl)amino)-5-((1-(oxetan-3-yl)-1H-pyrazol-4-yl)ethynyl)pyridin-4-yl)-4-methylpiperidin-4-yl)methanol]	0.5 nM	–	1.4 nM	–	1.3 nM	–	474 nM	–	2.8 nM	–	0.6 nM	0.8 nM	0.5 nM	6.7 nM	1.1 nM
CC1(CO)CCN(c2cc(Nc3ccnc(-c4cnn(S(=O)(=O)C5CC5)c4)n3)ncc2C#C[Si](C)(C)C)CC1 [Example 246, (1-(2-((2-(1-(Cyclopropylsulfonyl)-1H-pyrazol-4-yl)pyrimidin-4-yl)amino)-5-((trimethylsilyl)ethynyl)pyridin-4-yl)-4-methylpiperidin-4-yl)methanol]	54.6 nM	–	6.4 nM	–	15.4 nM	–	> 10000 nM	–	957 nM	–	34 nM	7.4 nM	3.8 nM	258 nM	105 nM
C#Cc1cnc(Nc2ccnc(-c3cnn(S(=O)(=O)C4CC4)c3)n2)cc1N1CCC(C)(CO)CC1 [Example 247, (1-(2-((2-(1-(Cyclopropylsulfonyl)-1H-pyrazol-4-yl)pyrimidin-4-yl)amino)-5-ethynylpyridin-4-yl)-4-methylpiperidin-4-yl)methanol]	1.7 nM	–	0.1 nM	–	0.5 nM	–	8670 nM	–	42.3 nM	–	1.3 nM	0.1 nM	0.1 nM	18.7 nM	8.1 nM
CC1(CO)CCN(c2cc(Nc3ccnc(-c4cnn(S(=O)(=O)C5CC5)c4)n3)ncc2C#Cc2cn(CC(F)F)c3ccncc23)CC1 [Example 249, (1-(2-((2-(1-(Cyclopropylsulfonyl)-1H-pyrazol-4-yl)pyrimidin-4-yl)amino)-5-((1-(2,2-difluoroethyl)-1H-pyrrolo[3,2-c]pyridin-3-yl)ethynyl)pyridin-4-yl)-4-methylpiperidin-4-yl)methanol]	7.5 nM	–	2.6 nM	–	1.9 nM	–	> 10000 nM	–	29.7 nM	–	6.9 nM	3.1 nM	1.1 nM	23.9 nM	4.7 nM
CC1(CO)CCN(c2cc(Nc3ccnc(-c4cnn(S(=O)(=O)C5CC5)c4)n3)ncc2C#CC2CC2)CC1 [Example 250, (1-(5-(Cyclopropylethynyl)-2-((2-(1-(cyclopropylsulfonyl)-1H-pyrazol-4-yl)pyrimidin-4-yl)amino)pyridin-4-yl)-4-methylpiperidin-4-yl)methanol]	2.8 nM	–	0.7 nM	–	0.9 nM	–	> 10000 nM	–	74.7 nM	–	2 nM	0.7 nM	0.4 nM	15 nM	6.6 nM
